{"source": "patent US20140235552A1", "about": "(priority 2013, published 2014)", "origin": "cited, not measured here", "key": {"gastrin levels": {"test_system": "gastrin levels", "conditions": "90 mg/day for 6 years or greater; cited from earlier work"}, "[1]": {"test_system": "patients with type 2 diabetes", "conditions": "12 weeks, cited from earlier work"}, "beta cell mass": {"test_system": "beta cell mass", "conditions": "after infusion in rats; cited from earlier work"}, "[2]": {"test_system": "human pancreatic ductal tissue", "conditions": "in vitro, without epidermal growth factor; cited from earlier work"}}, "note": "No end group written: not given here.", "data": [{"compound": "Cc1c(OCC(F)(F)F)ccnc1C[S+]([O-])c1nc2ccccc2[nH]1", "note": "(stereo not shown) [Lansoprazole, 1H-Benzimidazole,2-[[[3-methyl-4-(2,2,2-trifluoroethoxy)-2-pyridinyl]methyl]sulfinyl]-2-[[[3-Methyl-4-(2,2,2-trifluoroethoxy)-2-pyridyl]-methyl]sulfinyl]benzimidazole]", "values": [{"measurement": "gastrin levels relative to normal", "setting": "gastrin levels", "result": "~7", "unit": "fold"}, {"measurement": "safety profile", "setting": "gastrin levels", "result": "sustained safety profile"}]}, {"compound": "COc1ccc2nc([S@@+]([O-])Cc3ncc(C)c(OC)c3C)[nH]c2c1", "note": "[esomeprazole]", "values": [{"measurement": "increase in area under the curve (AUC) of gastrin", "setting": "[1]; 20 type 2 diabetes patients, 40 mg", "result": 9, "unit": "fold"}, {"measurement": "insulin secretion, glycaemic control or cardiovascular disease biomarkers", "setting": "[1]; type 2 diabetes, authors' conclusion", "result": "did not improve"}, {"measurement": "change in insulin AUC", "setting": "[1]; type 2 diabetes, inventor's reading of the published data", "result": "no decline"}]}, {"compound": "gastrin: gastrointestinal hormone demonstrated to result in new beta cell formation (QGPWLEEEEEAYGWMDF; ends and bridges not checked; UniProt P01350 76-92, looked up)", "values": [{"measurement": "beta cell mass", "setting": "beta cell mass", "result": "doubling"}, {"measurement": "beta cell neogenesis from human pancreatic ductal tissue", "setting": "[2]", "result": "induce beta cell neogenesis"}]}]}
